Source: patent publication US7349080B2, “Label-independent detection of unpurified analytes” (Corning Incorporated, priority 2004, dated 2008)

Assay: Label-independent detection (LID) of binding to immobilized biotin on a grating-coupled waveguide microplate
Source text: A label-independent detection (LID) system developed by Corning Inc. was used to evaluate interactions between unlabeled streptavidin and immobilized biotin. This LID system is comprised of a multi-well optical reader and a disposable microplate (e.g., a 96- or 384-well microplate). Each well of the microplate contains a grating-coupled waveguide for evanescent field sensing. The sensing surface has a surface chemistry layer allowing for attachment of molecules that contain primary amine groups (e.g., biotin-amine). As streptavidin or other analytes of interest bind to the sensing surface, the refractive index at the surface is changed. An optical mode propagates and senses the refractive index changes close to the sensing surface. Only light that is “resonant” is strongly reflected, and the exact wavelength of the resonance is a sensitive function of the refractive index at the surface of the sensor. In a typical operation, a baseline read of the microplate is first established. Addition of a binding partner results in a change in refractive index at the sensing surface, which is indicated as picometer (pm) shift from baseline. Each microplate is read on the optical reader before, during, and after the addition of the binding partner. Resonant wavelength shift (“Response (pm)”) is plotted as a function of time. Cell lysate was prepared by diluting a 2 mg/ml stock to 100 μg/ml final concentration. A Corning 96-well clear polystyrene non-treated flat bottom plate (Corning catalog # 3370) was used for source plate preparation. To facilitate efficient pickup of the sample solutions by a multi-channel robotic pipettor in the LID instrument, each well of the source plate contained extra solution. A solution of 1× phosphate buffered saline (PBS; 1 mM KH2PO4, 10 mM Na2HPO4, 137 mM NaCl, and 2.7 mM KCl) was used as a first addition step for baseline measure. […] Interactions between purified streptavidin and immobilized biotin were first evaluated (FIG. 2). […] PBS was added to establish a baseline read (before point A). […]

Compound | binding to the target area (ethanolamine in borate buffer, between points B and C, corrected response curve, FIG. 3) | effect of post wash on binding of streptavidin to biotin (PBS wash after point C, corrected response curve, FIG. 3) | bulk index shift (Response (pm)) due to binding to the immobilized biotin (purified streptavidin 200 nM in 1x PBS, between points A and B, FIG. 2)
NCCO [Ethanolamine, ethanolamine] | did not appear to bind to the target area | – | –
streptavidin | – | did not disrupt the binding | increase in the bulk index
